How the values were obtained:
Cytochrome P450 2E1 = Cytochrome P450 2E1 (Homo sapiens, UniProt P05181); settings: bti-tn-5b1-4; also: in other assays of this panel Not Active means under 50% inhibition at 10 µM
Vasopressin V1a receptor = Vasopressin V1a receptor (Homo sapiens, UniProt P37288); type: cell membranes, Membrane; settings: hek293; also: in other assays of this panel Not Active means under 50% inhibition at 10 µM
[1] = molecular target: C-C chemokine receptor type 5 (Homo sapiens, UniProt P51681); type: cell membranes, Membrane; settings: hek293; also: in other assays of this panel Not Active means under 50% inhibition at 10 µM
D(3) dopamine receptor = D(3) dopamine receptor (Homo sapiens, UniProt P35462); assay: DRUGMATRIX: Dopamine D3 radioligand binding (ligand: [3H] Spiperone); type: cell membranes, CHO, Membrane
Glycine receptor = Glycine receptor (Rattus norvegicus, UniProt P22771+P24524+P07727+P20781); type: cell membranes, Wistar, Spinal cord, Membrane; also: in other assays of this panel Not Active means under 50% inhibition at 10 µM
Progesterone receptor = molecular target: T1, Progesterone receptor (Bos taurus, UniProt Q690N0); assay: DRUGMATRIX: Progesterone radioligand binding (ligand: [3H] R-5020); type: tissue-based, Uterus; settings: Not Active = under 50% inhibition at 10 µM; for Ki: read-out: Ki
T1 sequence (Q690N0 whole entry): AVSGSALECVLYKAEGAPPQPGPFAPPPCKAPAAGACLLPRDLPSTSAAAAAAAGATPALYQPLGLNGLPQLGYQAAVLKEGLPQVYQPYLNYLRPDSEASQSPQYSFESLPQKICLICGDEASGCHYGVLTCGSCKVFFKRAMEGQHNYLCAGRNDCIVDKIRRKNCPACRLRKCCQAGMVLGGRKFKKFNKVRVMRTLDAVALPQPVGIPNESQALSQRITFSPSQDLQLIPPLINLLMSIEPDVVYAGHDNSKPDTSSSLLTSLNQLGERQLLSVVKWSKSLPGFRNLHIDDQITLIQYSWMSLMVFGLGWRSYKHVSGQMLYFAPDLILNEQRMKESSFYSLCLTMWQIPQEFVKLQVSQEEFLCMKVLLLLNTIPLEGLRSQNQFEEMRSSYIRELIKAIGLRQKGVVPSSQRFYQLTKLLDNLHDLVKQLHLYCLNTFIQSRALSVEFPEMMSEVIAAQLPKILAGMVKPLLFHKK

[2] = molecular target: T2, C-C chemokine receptor type 4 (Homo sapiens, UniProt P51679); type: cell membranes, Membrane; settings: chem-1; also: in other assays of this panel Not Active means under 50% inhibition at 10 µM
T2 sequence (P51679 whole entry): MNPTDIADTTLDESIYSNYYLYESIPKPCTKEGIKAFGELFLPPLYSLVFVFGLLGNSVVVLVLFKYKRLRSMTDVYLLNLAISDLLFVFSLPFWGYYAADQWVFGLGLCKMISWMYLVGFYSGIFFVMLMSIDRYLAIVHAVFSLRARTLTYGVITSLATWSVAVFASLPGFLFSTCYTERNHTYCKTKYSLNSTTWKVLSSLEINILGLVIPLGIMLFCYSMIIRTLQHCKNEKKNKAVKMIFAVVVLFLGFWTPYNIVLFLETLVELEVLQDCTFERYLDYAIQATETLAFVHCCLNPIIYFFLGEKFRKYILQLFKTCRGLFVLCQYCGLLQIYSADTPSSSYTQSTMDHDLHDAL

Vasopressin V1a receptor, sequence (P37288 whole entry): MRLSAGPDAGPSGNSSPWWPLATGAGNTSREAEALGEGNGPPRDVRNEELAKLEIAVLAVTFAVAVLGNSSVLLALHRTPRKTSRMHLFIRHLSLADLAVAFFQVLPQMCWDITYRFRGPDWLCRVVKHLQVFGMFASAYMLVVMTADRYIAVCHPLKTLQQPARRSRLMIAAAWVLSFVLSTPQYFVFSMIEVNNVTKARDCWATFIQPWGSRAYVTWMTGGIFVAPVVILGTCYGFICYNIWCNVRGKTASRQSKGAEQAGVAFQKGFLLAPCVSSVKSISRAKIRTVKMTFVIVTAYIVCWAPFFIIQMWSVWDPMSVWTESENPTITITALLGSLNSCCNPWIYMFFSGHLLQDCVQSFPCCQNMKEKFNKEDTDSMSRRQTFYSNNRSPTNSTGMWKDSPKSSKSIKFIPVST
D(3) dopamine receptor, sequence (P35462 whole entry): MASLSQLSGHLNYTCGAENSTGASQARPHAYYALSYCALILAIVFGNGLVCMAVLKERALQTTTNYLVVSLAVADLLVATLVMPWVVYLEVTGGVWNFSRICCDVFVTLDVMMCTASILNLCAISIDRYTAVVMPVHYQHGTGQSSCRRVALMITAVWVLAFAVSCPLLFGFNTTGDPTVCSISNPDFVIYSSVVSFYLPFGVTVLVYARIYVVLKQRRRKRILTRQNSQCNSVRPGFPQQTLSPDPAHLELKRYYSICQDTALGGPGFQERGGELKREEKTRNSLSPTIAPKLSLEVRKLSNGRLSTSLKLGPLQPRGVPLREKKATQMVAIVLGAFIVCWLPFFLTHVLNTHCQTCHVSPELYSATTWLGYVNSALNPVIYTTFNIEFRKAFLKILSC
C-C chemokine receptor type 5, sequence (P51681 whole entry): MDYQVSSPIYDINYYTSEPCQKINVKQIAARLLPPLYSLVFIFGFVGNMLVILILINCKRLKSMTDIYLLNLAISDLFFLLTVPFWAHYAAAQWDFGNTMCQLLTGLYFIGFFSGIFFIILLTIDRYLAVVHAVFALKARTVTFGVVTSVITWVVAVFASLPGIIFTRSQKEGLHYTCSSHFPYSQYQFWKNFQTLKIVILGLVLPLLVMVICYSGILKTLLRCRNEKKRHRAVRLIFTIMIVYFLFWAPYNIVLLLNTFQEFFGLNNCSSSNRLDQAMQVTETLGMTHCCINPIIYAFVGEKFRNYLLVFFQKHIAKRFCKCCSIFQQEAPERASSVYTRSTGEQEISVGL
Cytochrome P450 2E1, sequence (P05181 whole entry): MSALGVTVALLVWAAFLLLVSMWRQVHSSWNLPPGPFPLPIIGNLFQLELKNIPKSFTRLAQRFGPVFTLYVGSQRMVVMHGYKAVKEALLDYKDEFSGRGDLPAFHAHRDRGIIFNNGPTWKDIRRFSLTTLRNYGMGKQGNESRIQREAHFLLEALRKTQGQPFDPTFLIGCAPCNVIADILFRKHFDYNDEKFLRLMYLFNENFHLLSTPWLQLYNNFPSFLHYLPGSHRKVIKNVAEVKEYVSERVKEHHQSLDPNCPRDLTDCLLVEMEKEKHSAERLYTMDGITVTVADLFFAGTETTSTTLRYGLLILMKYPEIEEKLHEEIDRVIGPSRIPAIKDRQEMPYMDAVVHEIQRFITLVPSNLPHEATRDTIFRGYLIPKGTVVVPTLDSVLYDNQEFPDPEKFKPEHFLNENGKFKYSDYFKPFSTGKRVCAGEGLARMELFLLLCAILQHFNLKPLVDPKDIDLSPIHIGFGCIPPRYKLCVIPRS

[N-]=[N+]=CC(=O)OC[C@H](N)C(=O)O [AZASERINE]
IC50 (Cytochrome P450 2E1): Not Active | Ki (Cytochrome P450 2E1): Not Active | IC50 (Vasopressin V1a receptor): Not Active | IC50 [1]: Not Active | IC50 (D(3) dopamine receptor; cho): Not Active | IC50 (Glycine receptor): Not Active | IC50 (Progesterone receptor): Not Active | IC50 [2]: Not Active

CC[C@H]1OC(=O)[C@H](C)[C@@H](O[C@H]2C[C@@](C)(OC)[C@@H](O)[C@H](C)O2)[C@H](C)[C@@H](O[C@@H]2O[C@H](C)C[C@H](N(C)C)[C@H]2O)[C@](C)(O)C[C@@H](C)CN(C)[C@H](C)[C@@H](O)[C@]1(C)O [AZITHROMYCIN]
IC50 (Cytochrome P450 2E1): Not Active | Ki (Cytochrome P450 2E1): Not Active | IC50 (Vasopressin V1a receptor): Not Active | IC50 [1]: Not Active | IC50 (D(3) dopamine receptor; cho): Not Active | IC50 (Glycine receptor): Not Active | IC50 (Progesterone receptor): Not Active | IC50 [2]: Not Active

O=c1cc(-c2ccccc2)oc2ccc3ccccc3c12 [BETA-NAPHTHOFLAVONE]
IC50 (Cytochrome P450 2E1): Not Active | Ki (Cytochrome P450 2E1): Not Active | IC50 (Vasopressin V1a receptor): Not Active | IC50 [1]: Not Active | IC50 (D(3) dopamine receptor; cho): Not Active | IC50 (Glycine receptor): Not Active | IC50 (Progesterone receptor): Not Active | IC50 [2]: Not Active

CS(=O)(=O)OCCCCOS(C)(=O)=O [BUSULFAN]
IC50 (Cytochrome P450 2E1): Not Active | Ki (Cytochrome P450 2E1): Not Active | IC50 (Vasopressin V1a receptor): Not Active | IC50 [1]: Not Active | IC50 (D(3) dopamine receptor; cho): Not Active | IC50 (Glycine receptor): Not Active | IC50 (Progesterone receptor): Not Active | IC50 [2]: Not Active

NC(=O)N1c2ccccc2C=Cc2ccccc21 [CARBAMAZEPINE]
IC50 (Cytochrome P450 2E1): Not Active | Ki (Cytochrome P450 2E1): Not Active | IC50 (Vasopressin V1a receptor): Not Active | IC50 [1]: Not Active | IC50 (D(3) dopamine receptor; cho): Not Active | IC50 (Glycine receptor): Not Active | IC50 (Progesterone receptor): Not Active | IC50 [2]: Not Active

CCC[C@@H]1C[C@@H](C(=O)N[C@@H]([C@H]2O[C@H](SC)[C@H](O)[C@@H](O)[C@H]2O)[C@H](C)Cl)N(C)C1 [CLINDAMYCIN]
IC50 (Vasopressin V1a receptor): Not Active | IC50 [1]: Not Active | IC50 (D(3) dopamine receptor; cho): Not Active | IC50 (Glycine receptor): Not Active | IC50 (Progesterone receptor): Not Active | IC50 [2]: Not Active

O=C(O)c1cc(=O)c2c(OCC(O)COc3cccc4oc(C(=O)O)cc(=O)c34)cccc2o1 [CROMOLYN]
IC50 (Cytochrome P450 2E1): Not Active | Ki (Cytochrome P450 2E1): Not Active | IC50 (Vasopressin V1a receptor): Not Active | IC50 [1]: Not Active | IC50 (D(3) dopamine receptor; cho): Not Active | IC50 (Glycine receptor): Not Active | IC50 (Progesterone receptor): Not Active | IC50 [2]: Not Active

CC(=O)O[C@]1(C(C)=O)CC[C@H]2[C@@H]3C=C(Cl)C4=CC(=O)[C@@H]5C[C@@H]5[C@]4(C)[C@H]3CC[C@@]21C [CYPROTERONE ACETATE]
IC50 (Cytochrome P450 2E1): Not Active | Ki (Cytochrome P450 2E1): Not Active | IC50 (Vasopressin V1a receptor): Not Active | IC50 [1]: Not Active | IC50 (D(3) dopamine receptor; cho): Not Active | IC50 (Glycine receptor): Not Active | IC50 (Progesterone receptor; read-out: IC50): 37 nM | Ki (Progesterone receptor): 4.84 nM | IC50 [2]: Not Active

C#C[C@]1(O)CC[C@H]2[C@@H]3CCC4=Cc5oncc5C[C@]4(C)[C@H]3CC[C@@]21C [DANAZOL]
IC50 (Cytochrome P450 2E1): Not Active | Ki (Cytochrome P450 2E1): Not Active | IC50 (Vasopressin V1a receptor): Not Active | IC50 [1]: Not Active | IC50 (D(3) dopamine receptor; read-out: IC50): 28900 nM | Ki (D(3) dopamine receptor; read-out: Ki): 9800 nM | IC50 (Glycine receptor): Not Active | IC50 (Progesterone receptor; read-out: IC50): 259 nM | Ki (Progesterone receptor): 34 nM | IC50 [2]: Not Active

C[C@H](C(=O)O)c1cccc(C(=O)c2ccccc2)c1 [DEXKETOPROFEN]
IC50 (Cytochrome P450 2E1): Not Active | Ki (Cytochrome P450 2E1): Not Active | IC50 (Vasopressin V1a receptor): Not Active | IC50 [1]: Not Active | IC50 (D(3) dopamine receptor; cho): Not Active | IC50 (Glycine receptor): Not Active | IC50 (Progesterone receptor): Not Active | IC50 [2]: Not Active

CCn1cc(C(=O)O)c(=O)c2cc(F)c(N3CCNCC3)nc21 [ENOXACIN]
IC50 (Cytochrome P450 2E1): Not Active | Ki (Cytochrome P450 2E1): Not Active | IC50 (Vasopressin V1a receptor): Not Active | IC50 [1]: Not Active | IC50 (D(3) dopamine receptor; cho): Not Active | IC50 (Glycine receptor): Not Active | IC50 (Progesterone receptor): Not Active | IC50 [2]: Not Active

C#C[C@]1(O)CC[C@H]2[C@@H]3CCc4cc(O)ccc4[C@H]3CC[C@@]21C [ETHINYL ESTRADIOL]
IC50 (Cytochrome P450 2E1): Not Active | Ki (Cytochrome P450 2E1): Not Active | IC50 (Vasopressin V1a receptor): Not Active | IC50 [1]: Not Active | IC50 (D(3) dopamine receptor; cho): Not Active | IC50 (Glycine receptor): Not Active | IC50 (Progesterone receptor; read-out: IC50): 1070 nM | Ki (Progesterone receptor): 139 nM | IC50 [2]: Not Active

Reference: ChEMBL document CHEMBL1909046, “DrugMatrix in vitro pharmacology data”
